Assay results published in ChEMBL document CHEMBL4024718, “Design and synthesis of quinazolinones as EGFR inhibitors to overcome EGFR resistance obstacle” (Bioorg Med Chem, 2017).

Key:
[1] = system: NCI-H1975; assay: cells; format: functional, cell-based; settings: Homo sapiens, NCI-H1975, 48 h
[2] = system: A549; assay: Antiproliferative activity against human A549 cells harboring wild type EGFR after 48 hrs by SRB assay; format: cell-based; settings: A549, 48 h
[3] = system: HT-29; assay: Antiproliferative activity against non-special gene type human HT-29 cells after 48 hrs by SRB assay; format: cell-based; settings: HT-29, 48 h
[4] = target: Epidermal growth factor receptor (Homo sapiens, UniProt P00533, T790M)
[5] = target: Epidermal growth factor receptor (Homo sapiens, UniProt P00533); assay: Inhibition of human EGFR preincubated for 5 mins with substrate followed by ATP addition measured after 30 mins by HTRF method; format: ADME
[6] = target: Tyrosine-protein kinase Blk (Homo sapiens) (UniProt P51451); assay: Inhibition of human N-terminal His6 tagged recombinant full-length human Blk expressed in Sf21 insect cells at 3 uM relative to control
[7] = target: Cyclin-dependent kinase 1/cyclin B1 (Homo sapiens) (UniProt P06493+P14635); assay: Inhibition of C-terminal His6-tagged human full length Cdk1/N-terminal GST-tagged human full length Cyclin B expressed in baculovirus infected Sf21 insect cells at 3 uM relative to control
[8] = target: EGFR (epidermal growth factor receptor) kinase domain (Homo sapiens, UniProt P00533); assay: Inhibition of N-terminal GST-tagged human EGFR kinase domain (696 to end residues) expressed in baculovirus infected Sf21 insect cells at 3 uM relative to control
[9] = target: Vascular endothelial growth factor receptor 1 (Homo sapiens) (UniProt P17948); assay: Inhibition of recombinant human VEGFR-1 expressed in Spodoptera frugiperda insect cells at 3 uM relative to control
[10] = target: Vascular endothelial growth factor receptor 2 (Homo sapiens) (UniProt P35968); assay: Inhibition of recombinant human VEGFR-2 at 3 uM relative to control
[11] = target: Tyrosine-protein kinase ABL1 (Homo sapiens) (UniProt P00519); assay: Inhibition of N-terminal His6-tagged recombinant human Abl (27 to end residues) expressed in baculovirus infected Sf21 insect cells at 3 uM relative to control
[12] = target: 5'-AMP-activated protein kinase catalytic subunit alpha-1 (Homo sapiens) (UniProt Q13131); assay: Inhibition of full length recombinant human C-terminal His-tagged AMPKalpha1 expressed in Spodoptera frugiperda insect cells at 3 uM relative to control
[13] = target: Aurora kinase A (Homo sapiens) (UniProt O14965); assay: Inhibition of N-terminal His6-tagged recombinant full-length human Aurora A expressed in Sf21 insect cells at 3 uM relative to control
[14] = target: Mast/stem cell growth factor receptor Kit (Homo sapiens) (UniProt P10721); assay: Inhibition of N-terminal GST tagged recombinant human c-Kit (544 to end residues) expressed in baculovirus infected Sf21 insect cells at 3 uM relative to control
[15] = target: Focal adhesion kinase 1 (Homo sapiens) (UniProt Q05397); assay: Inhibition of N-terminal 6His-tagged recombinant human FAK (411 to 686 residues) expressed in baculovirus infected Sf21 insect cells at 3 uM relative to control
[16] = target: Fibroblast growth factor receptor 1 (Homo sapiens) (UniProt P11362); assay: Inhibition of N-terminal GST-tagged recombinant human FGFR1 (456 to 765 residues) expressed in baculovirus infected Sf21 insect cells at 3 uM relative to control
[17] = target: Receptor-type tyrosine-protein kinase FLT3 (Homo sapiens) (UniProt P36888); assay: Inhibition of N-terminal GST tagged recombinant human Flt3 (564 to end residues) at 3 uM relative to control
[18] = target: Insulin-like growth factor 1 receptor (Homo sapiens) (UniProt P08069); assay: Inhibition of N-terminal 6His-tagged recombinant human IGF-1R (959 to end residues) expressed in baculovirus infected Sf21 insect cells at 3 uM relative to control
[19] = target: Insulin receptor (Homo sapiens) (UniProt P06213); assay: Inhibition of N-terminal 6His-tagged recombinant human insulin receptor (1005 to 1310 residues) expressed in baculovirus infected Sf21 insect cells at 3 uM relative to control
[20] = target: Tyrosine-protein kinase JAK2 (Homo sapiens) (UniProt O60674); assay: Inhibition of C-terminal His6-tagged recombinant human JAK2 (808 to end residue) expressed in baculovirus infected Sf21 insect cells at 3 uM relative to control
[21] = target: LKB1-STRAD-MO25 complex (Homo sapiens) (UniProt Q15831+Q7RTN6+Q9Y376); assay: Inhibition of recombinant full-length N-terminal 6-His-tagged human LKB1/GST-tagged MO25alpha/GST-tagged STRADalpha expressed in SF21 cells at 3 uM relative to control
[22] = target: Dual specificity mitogen-activated protein kinase kinase 1 (Homo sapiens) (UniProt Q02750); assay: Inhibition of recombinant human N-terminal GST-fused MEK1 expressed in Escherichia coli at 3 uM relative to control
[23] = target: Hepatocyte growth factor receptor (Homo sapiens) (UniProt P08581); assay: Inhibition of N-terminal His6-tagged recombinant human Met (974 to end residues) expressed in baculovirus infected Sf21 insect cells at 3 uM relative to control
[24] = target: Tyrosine-protein kinase SYK (Homo sapiens) (UniProt P43405); assay: Inhibition of recombinant full length N-terminal His6-tagged human SYK expressed in baculovirus infected Sf21 insect cells at 3 uM relative to control

Sequence of Epidermal growth factor receptor (Homo sapiens, UniProt P00533) (P00533 whole entry): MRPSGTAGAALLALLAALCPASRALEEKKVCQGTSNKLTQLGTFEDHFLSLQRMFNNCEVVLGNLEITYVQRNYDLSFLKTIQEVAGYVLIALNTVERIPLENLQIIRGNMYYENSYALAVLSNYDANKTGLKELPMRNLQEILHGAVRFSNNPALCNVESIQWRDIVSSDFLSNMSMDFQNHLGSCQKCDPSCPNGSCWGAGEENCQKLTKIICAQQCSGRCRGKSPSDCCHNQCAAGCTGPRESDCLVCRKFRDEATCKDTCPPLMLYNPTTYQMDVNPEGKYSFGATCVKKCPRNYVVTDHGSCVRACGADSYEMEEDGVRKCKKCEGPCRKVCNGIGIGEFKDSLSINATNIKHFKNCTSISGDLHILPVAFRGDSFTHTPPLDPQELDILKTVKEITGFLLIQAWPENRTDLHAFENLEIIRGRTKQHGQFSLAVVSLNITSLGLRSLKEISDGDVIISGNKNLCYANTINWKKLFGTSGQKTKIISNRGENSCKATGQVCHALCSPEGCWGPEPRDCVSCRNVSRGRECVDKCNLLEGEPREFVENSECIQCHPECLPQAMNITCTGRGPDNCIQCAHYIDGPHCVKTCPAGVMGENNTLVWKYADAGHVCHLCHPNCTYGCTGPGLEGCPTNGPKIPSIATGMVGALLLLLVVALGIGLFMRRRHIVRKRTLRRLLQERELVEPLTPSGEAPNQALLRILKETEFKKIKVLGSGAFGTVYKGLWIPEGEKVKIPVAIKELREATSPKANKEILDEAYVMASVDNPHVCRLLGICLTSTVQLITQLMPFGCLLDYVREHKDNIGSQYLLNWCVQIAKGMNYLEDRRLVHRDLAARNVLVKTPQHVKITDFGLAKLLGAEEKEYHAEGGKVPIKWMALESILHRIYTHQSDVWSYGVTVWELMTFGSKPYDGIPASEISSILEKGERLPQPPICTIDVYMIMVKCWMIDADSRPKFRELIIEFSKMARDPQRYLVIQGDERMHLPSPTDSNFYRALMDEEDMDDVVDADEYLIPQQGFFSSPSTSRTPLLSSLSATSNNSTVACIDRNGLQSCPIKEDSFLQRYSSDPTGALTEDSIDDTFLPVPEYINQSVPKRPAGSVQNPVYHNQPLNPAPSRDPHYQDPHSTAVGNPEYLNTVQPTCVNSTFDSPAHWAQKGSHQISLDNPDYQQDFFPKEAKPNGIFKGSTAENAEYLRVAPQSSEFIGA
Sequence of Epidermal growth factor receptor (Homo sapiens, UniProt P00533, T790M) (P00533 25-1210 T790M limits assumed): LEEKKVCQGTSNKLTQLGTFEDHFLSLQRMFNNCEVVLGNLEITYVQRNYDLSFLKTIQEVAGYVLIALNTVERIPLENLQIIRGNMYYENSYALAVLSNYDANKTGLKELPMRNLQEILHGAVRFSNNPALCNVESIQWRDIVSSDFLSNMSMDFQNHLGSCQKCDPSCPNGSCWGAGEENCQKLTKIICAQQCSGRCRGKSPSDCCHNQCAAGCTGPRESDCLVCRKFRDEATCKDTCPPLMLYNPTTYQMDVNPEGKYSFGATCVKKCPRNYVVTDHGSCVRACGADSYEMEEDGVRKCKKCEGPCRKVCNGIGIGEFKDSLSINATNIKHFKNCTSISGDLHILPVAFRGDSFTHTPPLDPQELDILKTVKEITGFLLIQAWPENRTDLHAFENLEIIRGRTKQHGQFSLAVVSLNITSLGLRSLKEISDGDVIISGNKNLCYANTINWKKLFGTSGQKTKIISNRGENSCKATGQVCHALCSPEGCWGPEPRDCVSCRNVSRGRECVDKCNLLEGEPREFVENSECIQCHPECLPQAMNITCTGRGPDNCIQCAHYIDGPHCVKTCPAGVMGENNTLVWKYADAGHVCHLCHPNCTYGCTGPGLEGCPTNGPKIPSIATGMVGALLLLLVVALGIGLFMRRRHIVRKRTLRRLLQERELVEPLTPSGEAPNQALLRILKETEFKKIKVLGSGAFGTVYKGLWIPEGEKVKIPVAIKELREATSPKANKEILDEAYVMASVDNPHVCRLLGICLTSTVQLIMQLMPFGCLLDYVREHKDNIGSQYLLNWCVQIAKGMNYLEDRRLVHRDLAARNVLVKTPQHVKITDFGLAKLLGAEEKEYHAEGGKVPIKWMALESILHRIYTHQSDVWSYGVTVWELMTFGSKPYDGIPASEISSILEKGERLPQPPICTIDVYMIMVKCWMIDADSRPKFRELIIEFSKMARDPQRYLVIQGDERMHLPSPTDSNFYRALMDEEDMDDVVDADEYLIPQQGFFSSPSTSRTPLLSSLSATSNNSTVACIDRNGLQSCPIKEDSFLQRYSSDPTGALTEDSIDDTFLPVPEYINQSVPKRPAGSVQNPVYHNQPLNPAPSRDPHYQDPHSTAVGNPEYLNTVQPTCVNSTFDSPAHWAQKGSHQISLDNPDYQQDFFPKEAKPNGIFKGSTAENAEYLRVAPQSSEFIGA
Sequence of Vascular endothelial growth factor receptor 2 (Homo sapiens) (P35968 whole entry): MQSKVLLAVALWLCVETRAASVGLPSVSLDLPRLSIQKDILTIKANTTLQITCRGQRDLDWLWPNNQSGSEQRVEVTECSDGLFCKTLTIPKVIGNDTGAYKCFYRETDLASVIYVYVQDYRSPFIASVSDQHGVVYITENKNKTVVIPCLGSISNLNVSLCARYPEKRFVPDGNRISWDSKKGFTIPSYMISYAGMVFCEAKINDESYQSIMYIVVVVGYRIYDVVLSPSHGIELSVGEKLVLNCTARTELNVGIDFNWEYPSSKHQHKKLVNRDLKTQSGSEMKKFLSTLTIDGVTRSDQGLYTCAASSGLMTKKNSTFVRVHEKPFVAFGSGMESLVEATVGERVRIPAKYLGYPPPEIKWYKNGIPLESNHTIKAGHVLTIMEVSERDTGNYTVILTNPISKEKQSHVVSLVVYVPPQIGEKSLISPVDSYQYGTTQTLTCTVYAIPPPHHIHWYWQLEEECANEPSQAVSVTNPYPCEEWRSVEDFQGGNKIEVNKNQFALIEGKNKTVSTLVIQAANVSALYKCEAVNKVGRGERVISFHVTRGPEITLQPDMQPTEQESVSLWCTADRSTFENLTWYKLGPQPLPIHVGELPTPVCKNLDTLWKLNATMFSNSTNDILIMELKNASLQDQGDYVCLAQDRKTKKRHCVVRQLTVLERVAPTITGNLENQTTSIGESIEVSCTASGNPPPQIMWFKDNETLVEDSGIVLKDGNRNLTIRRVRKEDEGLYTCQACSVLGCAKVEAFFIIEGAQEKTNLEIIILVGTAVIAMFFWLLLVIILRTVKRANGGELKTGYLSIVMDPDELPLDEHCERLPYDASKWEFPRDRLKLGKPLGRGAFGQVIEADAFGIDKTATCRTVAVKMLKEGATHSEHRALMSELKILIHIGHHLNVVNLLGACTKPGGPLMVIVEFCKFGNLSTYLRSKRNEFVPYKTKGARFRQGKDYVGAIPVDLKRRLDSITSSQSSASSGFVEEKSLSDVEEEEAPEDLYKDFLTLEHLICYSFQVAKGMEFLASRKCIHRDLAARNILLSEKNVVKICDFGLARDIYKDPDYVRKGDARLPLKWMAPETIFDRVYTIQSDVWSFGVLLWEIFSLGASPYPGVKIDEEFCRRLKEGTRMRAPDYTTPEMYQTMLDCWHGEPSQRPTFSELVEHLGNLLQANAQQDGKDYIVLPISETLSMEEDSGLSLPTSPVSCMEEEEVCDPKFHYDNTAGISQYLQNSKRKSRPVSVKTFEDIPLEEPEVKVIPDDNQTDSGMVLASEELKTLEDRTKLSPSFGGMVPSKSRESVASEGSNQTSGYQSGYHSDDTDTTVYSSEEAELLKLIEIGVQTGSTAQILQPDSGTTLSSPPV
Sequence of Fibroblast growth factor receptor 1 (Homo sapiens) (P11362 22-822 limits assumed): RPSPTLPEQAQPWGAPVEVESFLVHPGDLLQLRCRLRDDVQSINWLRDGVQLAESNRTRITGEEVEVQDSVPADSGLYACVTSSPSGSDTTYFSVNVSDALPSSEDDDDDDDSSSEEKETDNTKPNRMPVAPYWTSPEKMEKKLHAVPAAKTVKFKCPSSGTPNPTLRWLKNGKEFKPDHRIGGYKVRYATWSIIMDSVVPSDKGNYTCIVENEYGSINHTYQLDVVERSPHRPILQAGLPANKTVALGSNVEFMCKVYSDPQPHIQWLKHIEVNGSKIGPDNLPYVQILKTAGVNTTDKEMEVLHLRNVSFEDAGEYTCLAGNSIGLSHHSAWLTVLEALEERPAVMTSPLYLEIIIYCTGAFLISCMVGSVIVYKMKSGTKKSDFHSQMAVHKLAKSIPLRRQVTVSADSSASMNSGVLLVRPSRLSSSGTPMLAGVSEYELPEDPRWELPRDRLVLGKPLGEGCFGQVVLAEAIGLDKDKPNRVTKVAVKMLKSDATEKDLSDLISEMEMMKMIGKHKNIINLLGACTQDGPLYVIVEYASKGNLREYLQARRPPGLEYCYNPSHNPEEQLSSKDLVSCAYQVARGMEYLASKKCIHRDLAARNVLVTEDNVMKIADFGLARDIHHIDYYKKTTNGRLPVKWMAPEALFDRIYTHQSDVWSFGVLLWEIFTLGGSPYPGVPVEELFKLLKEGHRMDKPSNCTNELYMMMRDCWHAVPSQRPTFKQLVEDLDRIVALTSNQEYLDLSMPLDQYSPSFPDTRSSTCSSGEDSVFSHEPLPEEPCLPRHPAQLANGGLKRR
Sequence of Aurora kinase A (Homo sapiens) (O14965 whole entry): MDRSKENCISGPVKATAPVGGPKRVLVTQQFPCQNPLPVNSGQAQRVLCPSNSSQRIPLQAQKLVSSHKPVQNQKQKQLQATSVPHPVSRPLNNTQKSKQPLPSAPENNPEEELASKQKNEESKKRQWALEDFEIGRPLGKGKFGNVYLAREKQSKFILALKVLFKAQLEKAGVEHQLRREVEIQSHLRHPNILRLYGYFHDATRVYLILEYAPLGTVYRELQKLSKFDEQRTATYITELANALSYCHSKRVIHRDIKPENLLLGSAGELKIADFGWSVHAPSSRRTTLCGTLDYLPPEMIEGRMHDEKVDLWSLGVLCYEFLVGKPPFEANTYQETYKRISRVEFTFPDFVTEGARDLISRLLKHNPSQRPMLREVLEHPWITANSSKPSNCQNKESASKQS

SMILES | IC50 [1] [nM] | IC50 [2] [nM] | IC50 [3] [nM] | IC50 [4] [nM] | IC50 [5] [nM] | further results
O=c1c2ccc(Cl)cc2nc(-c2ccccc2)n1-c1nnc(C2CC2)s1 | 129 | 717 | 732 | 102 | 530 | 
O=C(Nn1c(-c2ccccc2)nc2ccccc2c1=O)c1ccc(Br)cc1 | 810 | 523 | 1150 | 780 | 420 | 
O=c1c2ccc(Cl)cc2nc(-c2ccccc2)n1-c1cccnc1 | 2450 | 3330 | 3800 |  |  | 
O=c1c2ccccc2nc(-c2ccccc2)n1-c1nnc(-c2ccccc2Cl)s1 | 5230 | 100000 | 32500 | 7230 | 78200 | 
NCCn1c(-c2ccccc2)nc2cc(Cl)ccc2c1=O | 378 | 2450 | 428 | 287 | 2110 | 
O=C(Nc1cc(Cl)ccc1C(=O)Nc1ccc(F)cc1)c1ccccc1 | 14400 | 17400 | 3360 |  |  | 
COc1ccc(-c2nnc(-n3c(-c4ccccc4)nc4cc(Cl)ccc4c3=O)s2)cc1 | 31 | 390 | 388 | 21 | 320 | inhibition [6]: 0%; inhibition [7]: 0%; inhibition at 3 µM [8]: 78%; inhibition [9]: 0 to 34%; inhibition [10]: 42%; inhibition [11]: 0%; inhibition [12]: 0%; inhibition [13]: 0%; inhibition [14]: 0%; inhibition [15]: 0%; inhibition [16]: 0%; inhibition [17]: 0%; inhibition [18]: 10%; inhibition [19]: 0%; inhibition [20]: 0%; inhibition [21]: 0%; inhibition [22]: 0%; inhibition [23]: 0%; inhibition [24]: 0%
Cc1nnc(-n2c(-c3ccccc3)nc3cc(Cl)ccc3c2=O)s1 | 760 | 3790 | 21200 |  |  | 
CC(=O)c1ccccc1-n1c(-c2ccccc2)nc2cc(Cl)ccc2c1=O | 846 | 50000 | 50000 | 720 | 34300 | 
Nc1ccccc1-n1c(-c2ccccc2)nc2cc(Cl)ccc2c1=O | 4870 | 18300 | 50000 |  |  | 
C=CC(=O)Nc1cccc(Oc2nc(Nc3ccc(N4CCN(C)CC4)cc3OC)ncc2Cl)c1 |  | 1870 |  |  |  | 
O=c1c2ccc(Cl)cc2nc(-c2ccccc2)n1-c1cccc(Cl)c1 | 2450 | 5300 | 4500 |  |  | 
O=c1c2ccc(Cl)cc2nc(-c2ccccc2)n1-c1nnc(-c2ccccc2)s1 | 213 | 2090 | 2720 | 1120 | 1680 | 
O=c1c2ccccc2nc(-c2ccccc2)n1-c1nnc(C2CC2)s1 | 2380 | 3020 | 3460 |  |  | 
O=c1c2ccccc2nc(-c2ccccc2)n1-c1ccc(F)c(Cl)c1 | 4890 | 5420 | 6120 |  |  | 
COc1ccc(-n2c(-c3ccccc3)nc3cc(Cl)ccc3c2=O)cc1 | 2880 | 2870 | 3920 |  |  | 
O=C(Nc1cc(Cl)ccc1C(=O)NCc1ccccc1)c1ccccc1 | 1670 | 1570 | 4800 |  |  | 
